Measurements from PubChem BioAssay AID248 (DTP/NCI, 2004).
Where “and” joins values, the source holds several entries; their conditions need not be identical. Equal entries are not always repeated. Toxic doses and inconclusive results are not listed.

Test system: L1210 leukemia ip in BDF1 mice, survival T/C
Test: NCI In Vivo Anticancer Drug Screen. Data for tumor model L1210 Leukemia (intraperitoneal) in B6D2F1 (BDF1) mice
Conditions: endpoint: mean survival time, higher = longer survival
Method in brief: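 In this screen, tumor-bearing mice given compound are compared to those given vehicle, and their survival values are reported as a treated-to-control quotient.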

[1] = dose: 50.0 mg/kg/injection, schedule: Q01DX001 (ip), vehicle: saline
[2] = dose: 200.0 mg/kg/injection, schedule: Q01DX001 (ip), vehicle: saline

COc1ccc2c(c1)Cc1c-2nc2ccccc2c1Cl
T/C [1]: 101 % of control | T/C (dose: 100.0 mg/kg/injection, schedule: Q01DX001 (ip), vehicle: saline): 93 % of control | T/C [2]: 96 % of control | T/C (dose: 400.0 mg/kg/injection, schedule: Q01DX001 (ip), vehicle: saline): 100 % of control

COC1OC(CO)C(O)C(OS(C)(=O)=O)C1OS(C)(=O)=O (centres undefined)
T/C (dose: 100.0 mg/kg/injection, schedule: Q04DX002 (ip), vehicle: saline): 104 % of control | T/C (dose: 200.0 mg/kg/injection, schedule: Q04DX002 (ip), vehicle: saline): 104 % of control | T/C (dose: 400.0 mg/kg/injection, schedule: Q04DX002 (ip), vehicle: saline): 93 % of control

O=[N+]([O-])c1cccc2ncsc12
T/C (dose: 100.0 mg/kg/injection, schedule: Q01DX009 (ip), vehicle: other): 104 % of control | T/C (dose: 200.0 mg/kg/injection, schedule: Q01DX009 (ip), vehicle: other): 107 % of control | T/C (dose: 400.0 mg/kg/injection, schedule: Q01DX009 (ip), vehicle: other): 104 % of control

O=C(N/N=C\c1c[nH]c2ccccc12)N/N=C/c1c[nH]c2ccccc12
T/C (dose: 100.0 mg/kg/injection, schedule: Q04DX002 (ip), vehicle: saline with Tween-80): 97 % of control | T/C (dose: 200.0 mg/kg/injection, schedule: Q04DX002 (ip), vehicle: saline with Tween-80): 104 % of control | T/C (dose: 400.0 mg/kg/injection, schedule: Q04DX002 (ip), vehicle: saline with Tween-80): 97 % of control

O=C(Nc1cccc(C2=NCCCN2)c1)c1ccc(C(=O)Nc2cccc(C3=NCCCN3)c2)cc1
T/C (dose: 0.1 mg/kg/injection, schedule: Q01DX Z (ip), vehicle: saline): 95 % of control | T/C (dose: 0.2 mg/kg/injection, schedule: Q01DX Z (ip), vehicle: saline): 100 % of control | T/C (dose: 0.3 mg/kg/injection, schedule: Q01DX Z (ip), vehicle: saline): 97 % of control | T/C (dose: 0.5 mg/kg/injection, schedule: Q01DX Z (ip), vehicle: saline): 97 % of control

O=[N+]([O-])c1cc(Br)ccc1N1CCCC1
T/C (dose: 100.0 mg/kg/injection, schedule: Q04DX003 (ip), vehicle: saline): 88 % of control | T/C (dose: 200.0 mg/kg/injection, schedule: Q04DX003 (ip), vehicle: saline): 101 % of control | T/C (dose: 400.0 mg/kg/injection, schedule: Q04DX003 (ip), vehicle: saline): 93 % of control

Brc1ccccn1
T/C (dose: 75.0 mg/kg/injection, schedule: Q01DX001 (ip), vehicle: saline): 105 % of control

COC1OC2COC(c3ccccc3)OC2C(OC(C)=O)C1OC(C)=O (centres undefined)
T/C (dose: 100.0 mg/kg/injection, schedule: Q04DX002 (ip), vehicle: Klucel (hydroxypropylcellulose) (HPC)): 95 % of control | T/C (dose: 200.0 mg/kg/injection, schedule: Q04DX002 (ip), vehicle: Klucel (hydroxypropylcellulose) (HPC)): 117 % of control | T/C (dose: 400.0 mg/kg/injection, schedule: Q04DX002 (ip), vehicle: Klucel (hydroxypropylcellulose) (HPC)): 120 % of control

COC(=O)NC1CC(O)C(CO)C1 (centres undefined)
T/C (dose: 50.0 mg/kg/injection, schedule: Q01DX009 (ip), vehicle: Klucel (hydroxypropylcellulose) (HPC)): 94 % of control | T/C (dose: 100.0 mg/kg/injection, schedule: Q01DX009 (ip), vehicle: Klucel (hydroxypropylcellulose) (HPC)): 97 % of control

O=C(CCN1CC1)NCCc1ccccc1
T/C (dose: 20.0 mg/kg/injection, schedule: Q04DX003 (ip), vehicle: Klucel (hydroxypropylcellulose) (HPC)): 92 % of control | T/C (dose: 40.0 mg/kg/injection, schedule: Q04DX003 (ip), vehicle: Klucel (hydroxypropylcellulose) (HPC)): 95 % of control | T/C (dose: 100.0 mg/kg/injection, schedule: Q04DX003 (ip), vehicle: Klucel (hydroxypropylcellulose) (HPC)): 86 % of control

OCc1ccn2c1[C@@H](O)CC2
T/C (dose: 6.25 mg/kg/injection, schedule: Q01DX009 (ip), vehicle: saline): 107 % of control | T/C (dose: 12.5 mg/kg/injection, schedule: Q01DX009 (ip), vehicle: acetone): 100 % of control | T/C (dose: 12.5 mg/kg/injection, schedule: Q01DX009 (ip), vehicle: saline): 96 % of control | T/C (dose: 25.0 mg/kg/injection, schedule: Q01DX001 (ip), vehicle: saline): 101 % of control and 107 % of control | T/C (dose: 25.0 mg/kg/injection, schedule: Q01DX009 (ip), vehicle: acetone): 111 % of control | T/C (dose: 25.0 mg/kg/injection, schedule: Q01DX009 (ip), vehicle: saline): 110 % of control | T/C [1]: 112 % of control | T/C (dose: 50.0 mg/kg/injection, schedule: Q01DX009 (ip), vehicle: saline): 153 % of control | T/C (dose: 100.0 mg/kg/injection, schedule: Q01DX009 (ip), vehicle: saline): 121 % of control and 89 % of control | T/C [2]: 112 % of control
